Among the data in patent US20230382904A1, “SUBSTITUTED 4-([1,2,4]TRIAZOLO[1,5-a]PYRIDIN-6-YL)THIOPHENE-2-CARBOXAMIDE DERIVATIVES AND USE THEREOF” (The Johns Hopkins University, priority 2020, published 2023) are IC50 values, retold here.

The structures appear in SMILES notation. A value given as a limit tells only on which side of the number the result lay.

As a reminder, the IC50 is the concentration that inhibits the measured activity by half. Higher therefore signals weaker potency in that assay.

One assay deals with DLK (Homo sapiens (Human), UniProt Q12852). The assay can be described thus: DLK biochemical assay (TR-FRET, MKK7 phosphorylation). The method in brief:
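Catalytic-domain DLK (10 nM) phosphorylates His-MKK7 (15 nM) with 60 μM ATP, 90 min at RT, in pH 7.5 HEPES buffer. Phospho-T275/S277 read by TR-FRET (Eu anti-phospho donor, XL665 anti-His acceptor) after 16 h detection, at 37° C. in 1536 or 4° C. in 384 format.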
(Time-resolved FRET reads energy transfer from a long-lived donor to a nearby acceptor.)

The target in the next assay is LZK (Homo sapiens (Human), UniProt O43283). The assay can be described thus: LZK biochemical assay (TR-FRET, MKK7 phosphorylation). In a few lines: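 Catalytic-domain LZK (10 nM) phosphorylated His-MKK7 (15 nM) with 15 μM ATP for 90 min at RT. Phospho-T275/S277 detected by Eu-anti-phospho-MKK7/XL665-anti-His TR-FRET after 16 h at 32° C, using the 665/Eu ratio. Buffer: 50 mM Hepes pH 7.5, 10 mM MgCl2, 1 mM DTT.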
Sequence of LZK (O43283 168-409): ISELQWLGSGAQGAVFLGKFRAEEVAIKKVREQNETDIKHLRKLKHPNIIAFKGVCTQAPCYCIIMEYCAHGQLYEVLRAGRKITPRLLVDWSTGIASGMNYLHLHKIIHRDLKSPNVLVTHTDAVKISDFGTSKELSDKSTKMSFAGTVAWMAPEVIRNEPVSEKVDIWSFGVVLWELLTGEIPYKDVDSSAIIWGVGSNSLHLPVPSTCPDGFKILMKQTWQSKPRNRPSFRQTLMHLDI

Sequence of DLK (Q12852 1-520): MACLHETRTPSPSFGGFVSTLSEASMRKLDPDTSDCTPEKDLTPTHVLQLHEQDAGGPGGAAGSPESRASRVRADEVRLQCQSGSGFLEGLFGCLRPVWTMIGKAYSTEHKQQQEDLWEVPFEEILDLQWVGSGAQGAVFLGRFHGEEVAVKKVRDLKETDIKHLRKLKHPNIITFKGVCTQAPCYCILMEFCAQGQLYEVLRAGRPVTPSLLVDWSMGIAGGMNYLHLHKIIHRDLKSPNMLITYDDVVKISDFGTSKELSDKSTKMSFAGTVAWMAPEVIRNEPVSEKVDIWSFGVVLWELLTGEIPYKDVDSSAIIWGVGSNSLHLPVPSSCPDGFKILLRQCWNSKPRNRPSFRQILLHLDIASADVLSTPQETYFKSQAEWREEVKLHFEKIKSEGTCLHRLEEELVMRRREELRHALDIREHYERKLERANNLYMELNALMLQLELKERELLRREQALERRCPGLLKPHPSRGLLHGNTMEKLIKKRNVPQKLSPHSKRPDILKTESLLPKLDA

For the molecule `COc1ccc([C@H](C)NC(=O)c2cc(-c3ccc4nc(N)nn4c3)cs2)cc1` [Compound 354], the IC50 at DLK was 110 nM; on LZK it was greater than 30000 nM.
The matching figures for `C[C@H](NC(=O)c1cc(-c2ccc3nc(N)nn3c2)cs1)c1ccc(Cl)cc1` [Compound 355]: 210 nM and greater than 30000 nM.
The matching figures for `C[C@H](NC(=O)c1cc(-c2ccc3nc(N)nn3c2)cs1)c1ccc(OC(F)(F)F)cc1` [Compound 356]: 310 nM and greater than 30000 nM.
The matching figures for `CC(NC(=O)c1cc(-c2ccc3nc(N)nn3c2)cs1)c1ccc(OCC(F)F)cc1` (centres unmarked) [Compound 357]: 210 nM and greater than 30000 nM.
Take `C[C@H](NC(=O)c1cc(-c2ccc3nc(N)nn3c2)cs1)c1nc2ccccc2o1` [Compound 358]: the values for the IC50 against DLK and on LZK were 110 nM and 1200 nM, respectively.
As for `C[C@H](NC(=O)c1cc(-c2ccc3nc(N)nn3c2)cs1)c1ccccc1F` [Compound 359], the IC50 is 160 nM at DLK and greater than 30000 nM against LZK.
For `CC(NC(=O)c1cc(-c2ccc3nc(N)nn3c2)cs1)c1ccc(F)cc1F` (centres unmarked) [Compound 360], the IC50 against DLK was 400 nM; against LZK it was greater than 30000 nM.
The matching figures for `CC(NC(=O)c1cc(-c2ccc3nc(N)nn3c2)cs1)c1ccc(OC(F)(F)F)cc1` (centres unmarked) [Compound 361]: 1900 nM and greater than 30000 nM.
The matching figures for `C[C@H](NC(=O)c1cc(-c2ccc3nc(N)nn3c2)c(F)s1)c1ccc(F)cc1` [Compound 362]: 8200 nM and 23000 nM.
The matching figures for `Nc1nc2cc(-c3csc(C(=O)NCc4ccc(F)cc4)c3)ccn2n1` [Compound 363]: 640 nM and 8700 nM.
As to `COc1cccc(CNC(=O)c2cc(-c3ccn4nc(N)nc4c3)cs2)c1` [Compound 364], the figures for the IC50 at DLK and against LZK were 400 nM and 19000 nM, respectively.
On the same counts, the results for `Nc1nc2cc(-c3csc(C(=O)NCc4ccccc4)c3)ccn2n1` [Compound 365] are 500 nM and 11000 nM.
The matching figures for `Nc1nc2cc(-c3csc(C(=O)NCC4CCCCC4)c3)ccn2n1` [Compound 366]: 310 nM and greater than 30000 nM.
On the same counts, the results for `CCOc1cccc(CNC(=O)c2cc(-c3ccn4nc(N)nc4c3)cs2)c1` [Compound 367] are 300 nM and 28000 nM.
As to `Cc1cccc(C)c1NC(=O)c1cc(-c2ccn3nc(N)nc3c2)cs1` [Compound 368], the IC50 on DLK amounted to 670 nM; on LZK, 13000 nM.
`C[C@H](NC(=O)c1cc(-c2ccn3nc(N)nc3c2)cs1)c1ccc(F)cc1` [Compound 369]: the IC50 at DLK is 230 nM; against LZK it was 1900 nM.
On the same counts, the results for `Nc1nc2cc(-c3csc(C(=O)NCc4ccc(F)cc4)c3)cc(C(=O)O)n2n1` [Compound 370] are 4400 nM and greater than 30000 nM.
On the same counts, the results for `Cc1cc(-c2csc(C(=O)NCc3ccc(F)cc3)c2)cn2nc(N)nc12` [Compound 371] are 500 nM and 2300 nM.
The matching figures for `COc1cccc(CNC(=O)c2cc(-c3cc(C)c4nc(N)nn4c3)cs2)c1` [Compound 372]: 430 nM and 9200 nM.
With `Cc1cc(-c2csc(C(=O)NCc3ccccc3)c2)cn2nc(N)nc12` [Compound 373], the IC50 on DLK is 370 nM; against LZK, 2800 nM.
On the same counts, the results for `Cc1cc(-c2csc(C(=O)NC3CCCCC3)c2)cn2nc(N)nc12` [Compound 374] are 280 nM and 9300 nM.
The matching figures for `Nc1nc2c(C(F)(F)F)cc(-c3csc(C(=O)NCc4ccc(F)cc4)c3)cn2n1` [Compound 375]: 840 nM and 3300 nM.
The matching figures for `C[C@H](NC(=O)c1cc(-c2cc(C(F)(F)F)c3nc(N)nn3c2)cs1)c1ccccc1` [Compound 376]: 260 nM and 4900 nM.
Take `C[C@H](NC(=O)c1cc(-c2cc(C(F)(F)F)c3nc(N)nn3c2)cs1)c1ccc(F)cc1` [Compound 377]: the IC50 against DLK is 210 nM; against LZK, 2400 nM.
The matching figures for `Nc1nc2c(C(F)(F)F)cc(-c3csc(C(=O)NCc4ccccc4)c3)cn2n1` [Compound 378]: 1800 nM and 9500 nM.
On the same counts, the results for `Nc1nc2c(C(F)(F)F)cc(-c3csc(C(=O)NC4CCCCC4)c3)cn2n1` [Compound 379] are 970 nM and 20000 nM.
Regarding `COc1cccc(CNC(=O)c2cc(-c3cc(C(F)(F)F)c4nc(N)nn4c3)cs2)c1` [Compound 380], the IC50 was 1100 nM at DLK and greater than 30000 nM against LZK.
As for `COc1cccc(CNC(=O)c2cc(-c3cc(F)c4nc(N)nn4c3)cs2)c1` [Compound 381], the IC50 is 380 nM against DLK and greater than 30000 nM at LZK.
Turning to `Nc1nc2c(F)cc(-c3csc(C(=O)NCc4ccc(F)cc4)c3)cn2n1` [Compound 382], the IC50 was 310 nM on DLK and greater than 30000 nM on LZK.
On the same counts, the results for `C[C@H](NC(=O)c1cc(-c2cc(F)c3nc(N)nn3c2)cs1)c1ccc(F)cc1` [Compound 383] are greater than 30000 nM and greater than 30000 nM.
On the same counts, the results for `CC(C)NS(=O)(=O)c1cc(-c2csc(C(=O)N[C@@H](C)c3ccc(F)cc3)c2)cn2nc(N)nc12` [Compound 384] are greater than 30000 nM and greater than 30000 nM.
The matching figures for `CCNS(=O)(=O)c1cc(-c2csc(C(=O)N[C@@H](C)c3ccc(F)cc3)c2)cn2nc(N)nc12` [Compound 385]: 11000 nM and greater than 30000 nM.
Take `CNS(=O)(=O)c1cc(-c2csc(C(=O)N[C@@H](C)c3ccc(F)cc3)c2)cn2nc(N)nc12` [Compound 386]: the values for the IC50 against DLK and against LZK were 3400 nM and greater than 30000 nM, respectively.
On the same counts, the results for `COCc1cc(-c2csc(C(=O)NCc3ccc(F)cc3)c2)cn2nc(N)nc12` [Compound 387] are 750 nM and 2800 nM.
On the same counts, the results for `COCc1cc(-c2csc(C(=O)N[C@@H](C)c3ccc(F)cc3)c2)cn2nc(N)nc12` [Compound 388] are 210 nM and 1200 nM.
The matching figures for `CC(C)c1nnc(-c2cc(-c3csc(C(=O)N[C@@H](C)c4ccc(F)cc4)c3)cn3nc(N)nc23)s1` [Compound 392]: 100 nM and 830 nM.
Take `CCc1nnc(-c2cc(-c3csc(C(=O)NCc4ccc(F)cc4)c3)cn3nc(N)nc23)s1` [Compound 394]: the IC50 against DLK is 410 nM; on LZK it was 2500 nM.
On the same counts, the results for `CCc1nnc(-c2cc(-c3csc(C(=O)NCc4ccc(F)cc4)c3)cn3nc(N)nc23)o1` [Compound 395] are 1100 nM and 3600 nM.
On the same counts, the results for `CCc1nnc(-c2cc(-c3csc(C(=O)N[C@@H](C)c4ccc(F)cc4)c3)cn3nc(N)nc23)o1` [Compound 396] are 310 nM and 980 nM.
On the same counts, the results for `CCc1nnc(-c2cc(-c3csc(C(=O)N[C@@H](C)c4ccc(F)cc4)c3)cn3nc(N)nc23)s1` [Compound 397] are 73 nM and 1100 nM.
In the case of `CCC(C)c1nnc(-c2cc(-c3csc(C(=O)N[C@@H](CC)c4ccc(F)cc4)c3)cn3nc(N)nc23)s1` (some centres unmarked) [Compound 398], the results for the IC50 on DLK and against LZK were 880 nM and 3900 nM, respectively.
On the same counts, the results for `CCC(C)c1nnc(-c2cc(-c3csc(C(=O)N[C@@H](C)c4ccc(F)cc4)c3)cn3nc(N)nc23)s1` (some centres unmarked) [Compound 399] are 1760 nM and 3950 nM.
On the same counts, the results for `CCC(C)c1nnc(-c2cc(-c3csc(C(=O)NCc4ccc(F)cc4)c3)cn3nc(N)nc23)s1` (centres unmarked) [Compound 400] are 2150 nM and 4350 nM.
On the same counts, the results for `CC[C@H](NC(=O)c1cc(-c2cc(-c3nnc([C@@H](C)CO)s3)c3nc(N)nn3c2)cs1)c1ccc(F)cc1` [Compound 401] are 8.1 nM and 115 nM.
For `CC[C@H](NC(=O)c1cc(-c2cc(-c3cnn(CC(F)(F)F)c3)n3nc(N)nc3c2)cs1)c1ccc(F)cc1` [Compound 402], the IC50 against DLK turned out to be 69 nM; on LZK, 1900 nM.
On the same counts, the results for `CC[C@H](NC(=O)c1cc(-c2cc(-c3cnn(CC(F)(F)F)c3)c3nc(N)nn3c2)cs1)c1ccc(F)cc1` [Compound 403] are 140 nM and 5700 nM.
